Experimental data taken from US10597388B2, “Pyridazinone herbicides” (FMC CORPORATION, priority 2014, dated 2020).

Legend:
Test in all cases: Test D controlled growth environment herbicide test, pre- and postemergence
Type in all cases: in vivo
[1] = test system: deadnettle (henbit deadnettle, Lamium amplexicaule)
In short: (§1)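 Pre-emergence: seeds sown in silt loam soil were sprayed with compound in a non-phytotoxic solvent mix containing surfactant. Post-emergence: plants at 2 to 18 cm (1- to 4-leaf stage) in peat moss/vermiculite medium got the same formulation. Visual 0–100 rating versus controls after 14 to 21 d.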

[2] = test system: wheat, spring (spring wheat, Triticum aestivum)
In short: as §1

[3] = test system: radish, wild (wild radish, Raphanus raphanistrum)
In short: as §1

[4] = test system: windgrass (Apera spica-venti)
In short: as §1

[5] = test system: barley, spring (spring barley, Hordeum vulgare)
In short: as §1

[6] = test system: Russian thistle (Salsola kali)
In short: as §1

[7] = test system: speedwell (bird's-eye speedwell, Veronica persica)
In short: as §1

[8] = test system: ryegrass, Italian (Italian ryegrass, Lolium multiflorum)
In short: as §1

[9] = test system: canarygrass (Phalaris minor)
In short: as §1

[10] = test system: oat, wild (wild oat, Avena fatua)
In short: as §1

[11] = test system: oilseed rape (Brassica napus)
In short: as §1

[12] = test system: buckwheat, wild (wild buckwheat, Polygonum convolvulus)
In short: as §1

[13] = test system: field poppy (Papaver rhoeas)
In short: as §1

[14] = Postemergence, 31 g ai/ha, scale 0 to 100 (0 no effect, 100 complete control)
[15] = Postemergence, 125 g ai/ha, visual rating on scale 0 (no effect) to 100 (complete control), 14 to 21 d
[16] = Postemergence, 250 g ai/ha, scale 0 to 100 (0 no effect, 100 complete control)
[17] = Preemergence, 125 g ai/ha, scale 0 to 100 (0 no effect, 100 complete control)
[18] = Preemergence, 250 g ai/ha, scale 0 to 100, 0 no effect, 100 complete control
[19] = postemergence, 62 g ai/ha, scale 0 to 100, 0 no effect, 100 complete control
[20] = Preemergence, 62 g ai/ha, scale 0 to 100 (0 no effect, 100 complete control)

## CC(=O)Oc1c(C)nn(C)c(=O)c1-c1c(C)sc2ccc(Cl)cc12 [Compound 108]
[1]; [14]
  Deadnettle plant response rating: 35
[1]; [15]
  Plant response rating, Deadnettle: 75
[1]; [16]
  Plant response rating, Deadnettle: 90
[1]; Preemergence, 31 g ai/ha
  Plant response rating (scale of 0 to 100), Deadnettle: 0
[1]; Preemergence, 62 g ai/ha
  Plant response rating (scale of 0 to 100), Deadnettle: 25
[1]; [17]
  Plant response rating, Deadnettle: 95
[1]; [18]
  Plant response rating, Deadnettle: 100
[1]; [19]
  Plant response rating, Deadnettle: 50
[2]; [14]
  Wheat, Spring plant response rating: 15
[2]; [15]
  Plant response rating, Wheat, Spring: 20
[2]; [16]
  Plant response rating, Wheat, Spring: 30
[2]; Preemergence, 31 g ai/ha
  Plant response rating (scale of 0 to 100), Wheat, Spring: 0
[2]; Preemergence, 62 g ai/ha
  Plant response rating (scale of 0 to 100), Wheat, Spring: 20
[2]; [17]
  Plant response rating, Wheat, Spring: 25
[2]; [18]
  Plant response rating, Wheat, Spring: 40
[2]; [19]
  Plant response rating, Wheat, Spring: 20
[3]; [14]
  Radish, Wild plant response rating: 75
[3]; [15]
  Plant response rating, Radish, Wild: 85
[3]; [16]
  Plant response rating, Radish, Wild: 90
[3]; Preemergence, 31 g ai/ha
  Plant response rating (scale of 0 to 100), Radish, Wild: 45
[3]; Preemergence, 62 g ai/ha
  Plant response rating (scale of 0 to 100), Radish, Wild: 100
[3]; [17]
  Plant response rating, Radish, Wild: 100
[3]; [18]
  Plant response rating, Radish, Wild: 90
[3]; [19]
  Plant response rating, Radish, Wild: 75
[4]; [14]
  Windgrass plant response rating: 65
[4]; [15]
  Plant response rating, Windgrass: 75
[4]; [16]
  Plant response rating, Windgrass: 85
[4]; Preemergence, 31 g ai/ha
  Plant response rating (scale of 0 to 100), Windgrass: 25
[4]; Preemergence, 62 g ai/ha
  Plant response rating (scale of 0 to 100), Windgrass: 50
[4]; [17]
  Plant response rating, Windgrass: 75
[4]; [18]
  Plant response rating, Windgrass: 95
[4]; [19]
  Plant response rating, Windgrass: 70
[5]; [14]
  Barley, Spring plant response rating: 0
[5]; [15]
  Plant response rating, Barley, Spring: 15
[5]; [16]
  Plant response rating, Barley, Spring: 20
[5]; Preemergence, 31 g ai/ha
  Plant response rating (scale of 0 to 100), Barley, Spring: 0
[5]; [20]
  Plant response rating, Barley, Spring: 0
[5]; [17]
  Plant response rating, Barley, Spring: 0
[5]; [18]
  Plant response rating, Barley, Spring: 0
[5]; [19]
  Plant response rating, Barley, Spring: 10
[6]; [14]
  Russian Thistle plant response rating: 65
[6]; [15]
  Plant response rating, Russian Thistle: 75
[6]; [16]
  Plant response rating, Russian Thistle: 90
[6]; Preemergence, 31 g ai/ha
  Plant response rating (scale of 0 to 100), Russian Thistle: 0
[6]; Preemergence, 62 g ai/ha
  Plant response rating (scale of 0 to 100), Russian Thistle: 15
[6]; [17]
  Plant response rating, Russian Thistle: 70
[6]; [18]
  Plant response rating, Russian Thistle: 100
[6]; [19]
  Plant response rating, Russian Thistle: 70
[7]; [14]
  Speedwell plant response rating: 60
[7]; [15]
  Plant response rating, Speedwell: 70
[7]; [16]
  Plant response rating, Speedwell: 80
[7]; [19]
  Plant response rating, Speedwell: 65
[8]; [14]
  Ryegrass, Italian plant response rating: 90
[8]; [15]
  Plant response rating, Ryegrass, Italian: 95
[8]; [16]
  Plant response rating, Ryegrass, Italian: 100
[8]; Preemergence, 31 g ai/ha
  Plant response rating (scale of 0 to 100), Ryegrass, Italian: 80
[8]; Preemergence, 62 g ai/ha
  Plant response rating (scale of 0 to 100), Ryegrass, Italian: 98
[8]; [17]
  Plant response rating, Ryegrass, Italian: 100
[8]; [18]
  Plant response rating, Ryegrass, Italian: 100
[8]; [19]
  Plant response rating, Ryegrass, Italian: 90
[9]; [14]
  Canarygrass plant response rating: 40
[9]; [15]
  Plant response rating, Canarygrass: 80
[9]; [16]
  Plant response rating, Canarygrass: 80
[9]; Preemergence, 31 g ai/ha
  Plant response rating (scale of 0 to 100), Canarygrass: 45
[9]; Preemergence, 62 g ai/ha
  Plant response rating (scale of 0 to 100), Canarygrass: 80
[9]; [17]
  Plant response rating, Canarygrass: 90
[9]; [18]
  Plant response rating, Canarygrass: 95
[9]; [19]
  Plant response rating, Canarygrass: 50
[10]; [14]
  Oat, Wild plant response rating: 85
[10]; [15]
  Plant response rating, Oat, Wild: 100
[10]; [16]
  Plant response rating, Oat, Wild: 100
[10]; Preemergence, 31 g ai/ha
  Plant response rating (scale of 0 to 100), Oat, Wild: 80
[10]; Preemergence, 62 g ai/ha
  Plant response rating (scale of 0 to 100), Oat, Wild: 80
[10]; [17]
  Plant response rating, Oat, Wild: 80
[10]; [18]
  Plant response rating, Oat, Wild: 95
[10]; [19]
  Plant response rating, Oat, Wild: 95
[11]; [14]
  Oilseed Rape plant response rating: 45
[11]; [15]
  Plant response rating, Oilseed Rape: 75
[11]; [16]
  Plant response rating, Oilseed Rape: 100
[11]; Preemergence, 31 g ai/ha
  Plant response rating (scale of 0 to 100), Oilseed Rape: 20
[11]; Preemergence, 62 g ai/ha
  Plant response rating (scale of 0 to 100), Oilseed Rape: 45
[11]; [17]
  Plant response rating, Oilseed Rape: 75
[11]; [18]
  Plant response rating, Oilseed Rape: 40
[11]; [19]
  Plant response rating, Oilseed Rape: 70
[12]; [14]
  Buckwheat, Wild plant response rating: 90
[12]; [15]
  Plant response rating, Buckwheat, Wild: 100
[12]; [16]
  Plant response rating, Buckwheat, Wild: 100
[12]; Preemergence, 31 g ai/ha
  Plant response rating (scale of 0 to 100), Buckwheat, Wild: 0
[12]; [20]
  Plant response rating, Buckwheat, Wild: 0
[12]; [17]
  Plant response rating, Buckwheat, Wild: 20
[12]; [18]
  Plant response rating, Buckwheat, Wild: 35
[12]; [19]
  Plant response rating, Buckwheat, Wild: 100
[13]; [14]
  Field Poppy plant response rating: 20
[13]; [15]
  Plant response rating, Field Poppy: 65
[13]; [16]
  Plant response rating, Field Poppy: 75
[13]; Preemergence, 31 g ai/ha
  Plant response rating (scale of 0 to 100), Field Poppy: 10
[13]; Preemergence, 62 g ai/ha
  Plant response rating (scale of 0 to 100), Field Poppy: 10
[13]; [17]
  Plant response rating, Field Poppy: 100
[13]; [18]
  Plant response rating, Field Poppy: 100
[13]; [19]
  Plant response rating, Field Poppy: 55
